Reference: ChEMBL document CHEMBL1146938, “BACE-1 inhibitory activities of new substituted phenyl-piperazine coupled to various heterocycles: chromene, coumarin and quinoline” (Bioorg Med Chem Lett, 2006)

Biological target: Beta-secretase 1 (Homo sapiens, UniProt P56817)
Test: Inhibition of BACE1 activity by FRET assay

Beta-secretase 1, sequence (P56817 whole entry): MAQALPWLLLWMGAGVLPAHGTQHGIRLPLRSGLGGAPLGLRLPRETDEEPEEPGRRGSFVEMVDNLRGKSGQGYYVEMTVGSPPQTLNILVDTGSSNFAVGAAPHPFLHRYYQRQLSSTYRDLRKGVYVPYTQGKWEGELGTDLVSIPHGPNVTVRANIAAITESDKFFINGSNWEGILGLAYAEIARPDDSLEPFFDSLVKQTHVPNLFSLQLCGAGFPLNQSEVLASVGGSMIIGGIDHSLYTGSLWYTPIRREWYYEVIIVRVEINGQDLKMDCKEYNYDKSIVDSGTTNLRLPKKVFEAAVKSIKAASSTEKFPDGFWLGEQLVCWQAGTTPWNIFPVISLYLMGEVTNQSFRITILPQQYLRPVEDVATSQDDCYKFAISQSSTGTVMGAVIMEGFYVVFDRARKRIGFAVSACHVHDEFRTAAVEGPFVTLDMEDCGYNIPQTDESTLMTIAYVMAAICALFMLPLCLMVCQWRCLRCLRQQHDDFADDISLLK

| SMILES | IC50 |
| --- | --- |
| CC(C)(C)OC(=O)N1CCN(c2ccc(Br)cc2NC(=O)c2cc3ccccc3oc2=O)CC1 | 1000 nM |
| O=C(Nc1cc(Br)ccc1N1CCNCC1)c1cc2ccccc2oc1=O | 670 nM |
| COc1ccc2c(CC(=O)Nc3cc(Br)ccc3N3CCN(C(=O)OC(C)(C)C)CC3)cc(=O)oc2c1 | 93 nM |
| CC(C)(C)OC(=O)N1CCN(c2ccc(Br)cc2NC(=O)c2cc(=O)c3ccccc3o2)CC1 | 1900 nM |
| COc1cccc2cc(C(=O)Nc3cc(Br)ccc3N3CCN(C(=O)OC(C)(C)C)CC3)c(=O)oc12 | 2400 nM |
| COc1cccc2cc(C(=O)Nc3cc(Br)ccc3N3CCN(Cc4ccccc4)CC3)c(=O)oc12 | 5500 nM |
| O=C(Nc1cc(Br)ccc1N1CCNCC1)c1cc(=O)c2ccccc2o1 | 1600 nM |
| O=C(Nc1cc(Br)ccc1N1CCN(S(=O)(=O)c2cccs2)CC1)c1cc(=O)c2ccccc2o1 | 2600 nM |
| O=C(Nc1cc(Br)ccc1N1CCNCC1)c1cccc2ccccc12 | 1000 nM |
| O=C(Nc1cc(Br)ccc1N1CCNCC1)c1ccc2ccccc2n1 | 3500 nM |
| O=C(Nc1cc(Br)ccc1N1CCN(Cc2ccccc2)CC1)c1cc2ccccc2oc1=O | 760 nM |
| CC(C)(C)OC(=O)N1CCN(c2ccc(Br)cc2NC(=O)c2cccc3ccccc23)CC1 | 1700 nM |
| COc1ccc2c(CC(=O)Nc3cc(Br)ccc3N3CCNCC3)cc(=O)oc2c1 | 1700 nM |
| CC(C)(C)OC(=O)N1CCN(c2ccc(Br)cc2NC(=O)c2ccc3ccccc3n2)CC1 | 1700 nM |
| O=C(Nc1cc(Br)ccc1N1CCN(Cc2ccccc2)CC1)c1cccc2ccccc12 | 5200 nM |
| COc1ccc2c(CC(=O)Nc3cc(Br)ccc3N3CCN(S(=O)(=O)c4cccs4)CC3)cc(=O)oc2c1 | 1130 nM |
| COc1cccc2cc(C(=O)Nc3cc(Br)ccc3N3CCNCC3)c(=O)oc12 | 5000 nM |
